Data on two compounds can be found in patent US5849922A, “Preparation of substituted alkenoic acids” (Eli Lilly and Company, priority 1997, dated 1998).

This assay relates to TXA2 agonist activity. As to the kind of experiment: Absence of Agonist Activity (pressor response in pithed rats). It is filed as in vivo. The text has this:
3. Absence of Agonist Activity.

In the case of `O=C(O)CCCC/C=C(\c1ccc(-c2nc(C(=O)NCCCCC3CCCCC3)co2)cc1)c1cccnc1` [Example 2, (E)-7-[4-[4-[[(4-Cyclohexylbutyl)amino]carbonyl]-2-oxazolyl]phenyl]-7-(3-pyridyl)hept-6-enoic Acid], the “pressor response following i.v. administration” value (i.v., doses up to 10 mg/kg) is given as “absence of a pressor response”.

Consider `O=C(O)CCC/C=C\CC1C2CCC(C2)C1NS(=O)(=O)c1ccccc1` (centres unmarked) [Example S-145], for which the “increase in the mean arterial pressure” value (0.1 mg/kg i.v., at one minute after dosing) is recorded as “transient, but significant, increase in the mean arterial pressure”.
